Data from US20160176880A1, “SUBSTITUTED IMIDAZO[1,2-A]PYRAZINECARBOXAMIDES AND USE THEREOF” (BAYER PHARMA AKTIENGESELLSCHAFT, priority 2013, published 2016).

molecular target: T1, recombinant guanylate cyclase reporter cell line (Rattus norvegicus, UniProt P19686+P20595); assay: Effect on a recombinant guanylate cyclase reporter cell line; type: cell-based; details: MEC = minimum effective concentration; in some cases mean values for individual determinations
T1 construct: expressed in transfected cells
T1 sequence (P19686 1-690): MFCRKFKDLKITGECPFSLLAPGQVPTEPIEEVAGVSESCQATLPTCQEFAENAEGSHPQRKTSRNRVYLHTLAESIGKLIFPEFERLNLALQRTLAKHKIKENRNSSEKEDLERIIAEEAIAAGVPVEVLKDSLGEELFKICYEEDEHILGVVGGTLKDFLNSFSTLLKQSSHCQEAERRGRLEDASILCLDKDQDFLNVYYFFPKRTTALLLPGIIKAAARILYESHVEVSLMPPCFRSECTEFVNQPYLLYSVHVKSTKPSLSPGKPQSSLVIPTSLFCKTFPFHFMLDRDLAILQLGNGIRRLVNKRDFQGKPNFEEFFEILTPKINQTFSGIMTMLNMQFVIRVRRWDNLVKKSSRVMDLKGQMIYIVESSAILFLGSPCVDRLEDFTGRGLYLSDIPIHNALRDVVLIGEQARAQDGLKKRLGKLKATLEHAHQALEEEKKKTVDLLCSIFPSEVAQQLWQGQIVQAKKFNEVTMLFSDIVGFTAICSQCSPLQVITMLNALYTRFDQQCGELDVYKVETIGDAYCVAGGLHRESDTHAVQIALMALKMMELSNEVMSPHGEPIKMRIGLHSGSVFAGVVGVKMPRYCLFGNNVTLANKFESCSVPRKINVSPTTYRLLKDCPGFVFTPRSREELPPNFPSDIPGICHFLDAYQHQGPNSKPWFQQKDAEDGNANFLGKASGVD
T1 sequence (P20595 1-619): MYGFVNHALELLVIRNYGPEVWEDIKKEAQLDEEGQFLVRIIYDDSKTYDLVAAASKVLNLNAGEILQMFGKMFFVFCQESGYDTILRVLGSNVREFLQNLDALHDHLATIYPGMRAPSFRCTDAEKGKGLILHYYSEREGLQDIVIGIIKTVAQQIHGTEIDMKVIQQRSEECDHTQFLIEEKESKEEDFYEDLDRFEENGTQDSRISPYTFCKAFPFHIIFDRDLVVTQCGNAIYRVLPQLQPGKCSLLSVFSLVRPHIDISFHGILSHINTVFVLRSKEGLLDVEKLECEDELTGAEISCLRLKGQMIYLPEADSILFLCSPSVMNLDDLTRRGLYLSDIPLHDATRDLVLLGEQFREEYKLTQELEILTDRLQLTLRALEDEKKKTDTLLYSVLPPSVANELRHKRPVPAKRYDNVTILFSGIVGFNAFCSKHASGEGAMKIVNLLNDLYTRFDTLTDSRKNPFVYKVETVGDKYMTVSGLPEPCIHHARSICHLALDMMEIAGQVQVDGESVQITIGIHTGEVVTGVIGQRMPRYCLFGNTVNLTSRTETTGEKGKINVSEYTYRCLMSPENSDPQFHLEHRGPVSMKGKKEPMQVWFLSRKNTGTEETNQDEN
Procedure: B-2. Effect on a Recombinant Guanylate Cyclase Reporter Cell Line
The cellular action of the compounds of the invention is determined using a recombinant guanylate cyclase reporter cell line, as described in F. Wunder et al., Anal. Biochem. 339, 104-112 (2005).
Representative MEC values (MEC=minimum effective concentration) for the compounds of the invention are shown in the table below (in some cases as mean values for individual determinations): […]

MEC [µM] | SMILES
1 | COC(=O)[C@H]1CC[C@H](CNC(=O)c2c(C)nc3c(OCc4c(F)cccc4F)nc(C)cn23)CC1 [Example 8, Methyl trans-4-{[({8-[(2,6-difluorobenzyl)oxy]-2,6-dimethylimidazoyl}carbonyl)amino]methyl}cyclohexanecarboxylate]
3 | Cc1cn2c(C(=O)N[C@H]3CCNC3=O)c(C)nc2c(OCc2c(F)cccc2F)n1 [Example 9, 8-[(2,6-Difluorobenzyl)oxy]-2,6-dimethyl-N-[(3S)-2-oxopyrrolidin-3-yl]imidazo[1,2-a]pyrazine-3-carboxamide]
1 | Cc1cn2c(C(=O)NCCC3(O)CCCC3)c(C)nc2c(OCc2c(F)cccc2F)n1 [Example 12, 8-[(2,6-Difluorobenzyl)oxy]-N-[2-(1-hydroxycyclopentyl)ethyl]-2,6-dimethylimidazo[1,2-a]pyrazine-3-carboxamide]
3 | Cc1cn2c(C(=O)NC3CC(C)(C)NC(C)(C)C3)c(C)nc2c(OCc2c(F)cccc2F)n1 [Example 16, 8-[(2,6-difluorobenzyl)oxy]-2,6-dimethyl-N-(2,2,6,6-tetramethylpiperidin-4-yl)imidazo[1,2-a]pyrazine-3-carboxamide]
3 | Cc1cn2c(C(=O)Nc3cnn(CC(F)(F)F)c3)c(C)nc2c(OCc2c(F)cccc2F)n1 [Example 24, 8-[(2,6-difluorobenzyl)oxy]-2,6-dimethyl-N-[1-(2,2,2-trifluoroethyl)-1H-pyrazol-4-yl]imidazo[1,2-a]pyrazine-3-carboxamide]
1 | Cc1cn2c(C(=O)Nc3c(C(F)(F)F)n[nH]c3C)c(C)nc2c(OCc2c(F)cccc2F)n1 [Example 27, 8-[(2,6-difluorobenzyl)oxy]-2,6-dimethyl-N-[5-methyl-3-(trifluoromethyl)-1H-pyrazol-4-yl]imidazo[1,2-a]pyrazine-3-carboxamide]
3 | Cc1cn2c(C(=O)Nc3cnn4ccccc34)c(C)nc2c(OCc2c(F)cccc2F)n1 [Example 30, 8-[(2,6-difluorobenzyl)oxy]-2,6-dimethyl-N-(pyrazolo[1,5-a]pyridin-3-yl)imidazo[1,2-a]pyrazine-3-carboxamide]
1 | Cc1cn2c(C(=O)NCC3(O)CC3)c(C)nc2c(OCc2c(F)cccc2F)n1 [Example 32, 8-[(2,6-difluorobenzyl)oxy]-N-[(1-hydroxycyclopropyl)methyl]-2,6-dimethylimidazo[1,2-a]pyrazine-3-carboxamide]

More lines, now with the values behind:

SMILES | MEC [µM]
Cc1cn2c(C(=O)Nc3ccnc4ccc(F)cc34)c(C)nc2c(OCc2c(F)cccc2F)n1 [Example 10, 8-[(2,6-Difluorobenzyl)oxy]-N-(6-fluoroquinolin-4-yl)-2,6-dimethylimidazo[1,2-a]pyrazine-3-carboxamide] | 0.3
Cc1cn2c(C(=O)NC[C@H]3CC[C@H](C(=O)O)CC3)c(C)nc2c(OCc2c(F)cccc2F)n1.Cl [Example 11, trans-4-{[({8-[(2,6-Difluorobenzyl)oxy]-2,6-dimethylimidazo[1,2-a]pyrazin-3-yl}carbonyl)amino]methyl}cyclohexanecarboxylic acid hydrochloride] | 3
Cc1cn2c(C(=O)NC3c4ccccc4CC3O)c(C)nc2c(OCc2c(F)cccc2F)n1 (centres unmarked) [Example 13, 8-[(2,6-difluorobenzyl)oxy]-N-(2-hydroxy-2,3-dihydro-1H-inden-1-yl)-2,6-dimethylimidazo[1,2-a]pyrazine-3-carboxamide] | 3
CCC(N)(CC)CNC(=O)c1c(C)nc2c(OCc3c(F)cccc3F)nc(C)cn12 [Example 15, N-(2-amino-2-ethylbutyl)-8-[(2,6-difluorobenzyl)oxy]-2,6-dimethylimidazo[1,2-a]pyrazine-3-carboxamide] | 1
Cc1cn2c(C(=O)Nc3c(C)nn(CCO)c3C)c(C)nc2c(OCc2c(F)cccc2F)n1 [Example 18, 8-[(2,6-difluorobenzyl)oxy]-N-[1-(2-hydroxyethyl)-3,5-dimethyl-1H-pyrazol-4-yl]-2,6-dimethylimidazo[1,2-a]pyrazine-3-carboxamide] | 3
Cc1cn2c(C(=O)NCCN(C)C)c(C)nc2c(OCc2c(F)cccc2F)n1 [Example 19, 8-[(2,6-difluorobenzyl)oxy]-N-[2-(dimethylamino)ethyl]-2,6-dimethylimidazo[1,2-a]pyrazine-3-carboxamide] | 3
Cc1cn2c(C(=O)NCc3ccccc3-c3cccnc3)c(C)nc2c(OCc2c(F)cccc2F)n1 [Example 21, 8-[(2,6-difluorobenzyl)oxy]-2,6-dimethyl-N-[2-(pyridin-3-yl)benzyl]imidazo[1,2-a]pyrazine-3-carboxamide] | 3
Cc1cn2c(C(=O)NCCN3CCOCC3)c(C)nc2c(OCc2c(F)cccc2F)n1 [Example 22, 8-[(2,6-difluorobenzyl)oxy]-2,6-dimethyl-N-[2-(morpholin-4-yl)ethyl]imidazo[1,2-a]pyrazine-3-carboxamide] | 3
Cc1cn2c(C(=O)Nc3c(C)nn(Cc4ccc(F)cc4)c3C)c(C)nc2c(OCc2c(F)cccc2F)n1 [Example 23, 8-[(2,6-difluorobenzyl)oxy]-N-[1-(4-fluorobenzyl)-3,5-dimethyl-1H-pyrazol-4-yl]-2,6-dimethylimidazo[1,2-a]pyrazine-3-carboxamide] | 1
Cc1cn2c(C(=O)NCc3ncc[nH]3)c(C)nc2c(OCc2c(F)cccc2F)n1 [Example 25, 8-[(2,6-difluorobenzyl)oxy]-N-(1H-imidazol-2-ylmethyl)-2,6-dimethylimidazo[1,2-a]pyrazine-3-carboxamide] | 3
Cc1cn2c(C(=O)NCc3ccc(Cl)nc3)c(C)nc2c(OCc2c(F)cccc2F)n1 [Example 28, N-[(6-chloropyridin-3-yl)methyl]-8-[(2,6-difluorobenzyl)oxy]-2,6-dimethylimidazo[1,2-a]pyrazine-3-carboxamide] | 1
Cc1cn2c(C(=O)NCCN(CC(F)F)C3CC3)c(C)nc2c(OCc2c(F)cccc2F)n1 [Example 33, N-{2-[cyclopropyl(2,2-difluoroethyl)amino]ethyl}-8-[(2,6-difluorobenzyl)oxy]-2,6-dimethylimidazo[1,2-a]pyrazine-3-carboxamide] | 3
Cc1cn2c(C(=O)N[C@H]3CCOC3=O)c(C)nc2c(OCc2c(F)cccc2F)n1 [Example 34, 8-[(2,6-difluorobenzyl)oxy]-2,6-dimethyl-N-[(3S)-2-oxotetrahydrofuran-3-yl]imidazo[1,2-a]pyrazine-3-carboxamide] | 3
CCC(CO)(CO)NC(=O)c1c(C)nc2c(OCc3c(F)cccc3F)nc(C)cn12 [Example 35, 8-[(2,6-difluorobenzyl)oxy]-N-[1-hydroxy-2-(hydroxymethyl)butan-2-yl]-2,6-dimethylimidazo[1,2-a]pyrazine-3-carboxamide] | 3
Cc1cn2c(C(=O)NC3CC4CCCC(C3)N4C)c(C)nc2c(OCc2c(F)cccc2F)n1 (centres unmarked) [Example 36, 8-[(2,6-difluorobenzyl)oxy]-2,6-dimethyl-N-(9-methyl-9-azabicyclo[3.3.1]non-3-yl)imidazo[1,2-a]pyrazine-3-carboxamide] | 1
Cc1cn2c(C(=O)NOCCO)c(C)nc2c(OCc2c(F)cccc2F)n1 [Example 44, 8-[(2,6-Difluorobenzyl)oxy]-N-(2-hydroxyethoxy)-2,6-dimethylimidazo[1,2-a]pyrazine-3-carboxamide] | 10
Cc1cn2c(C(=O)NN3CCOCC3)c(C)nc2c(OCc2c(F)cccc2F)n1 [Example 45, 8-[(2,6-difluorobenzyl)oxy]-2,6-dimethyl-N-(morpholin-4-yl)imidazo[1,2-a]pyrazine-3-carboxamide] | 10
Cc1nc2c(OCC3CCCCC3)nccn2c1C(=O)NCc1ccc(F)c(F)c1 [Example 47, 8-(Cyclohexylmethoxy)-N-(3,4-difluorobenzyl)-2-methylimidazo[1,2-a]pyrazine-3-carboxamide] | 1.0
